In data set [1] the target is T1, smooth muscle angiotensin II receptor.
T1 construct: Rat uterine membranes were prepared from fresh tissue
In words: Assay A: Angiotensin II Binding Activity. Conditions: rat uterine membrane preparation, displacement of 125I-AII. Here is the method: Assay A: Angiotensin II Binding Activity
Compounds of Formula I were tested for ability to bind to the smooth muscle angiotensin II receptor using a rat uterine membrane preparation. […] Other chemicals were obtained from Sigma Chemical Co. This assay was carried out according to the method of Douglas et al [Endocrinology, 106, 120–124 (1980)]. Rat uterine membranes were prepared from fresh tissue. All procedures were carried out at 4° C. Uteri were stripped of fat and homogenized in phosphate-buffered saline at pH 7.4 containing 5 mM EDTA. The homogenate was centrifuged at 1500×g for 20 min., and the supernatant was recentrifuged at 100,000×g for 60 min. The pellet was resuspended in buffer consisting of 2 mM EDTA and 50 mM Tris-HCl (pH 7.5) to a final protein concentration of 4 mg/ml. […] The reaction was initiated by the addition of membrane protein and the mixture was incubated at 25° C. for 60 min. The incubation was terminated with ice-cold 50 mM Tris-HCl (pH 7.5) and the mixture was filtered to separate membrane-bound labelled peptide from the free ligand. The incubation tube and filter were washed with ice-cold buffer. Filters were assayed for radioactivity in a Micromedic gamma counter. Nonspecific binding was defined as binding in the presence of 10 μM of unlabelled AII. Specific binding was calculated as total binding minus nonspecific binding. […] Binding data were analyzed by a nonlinear least-squares curve fitting program.
A general note: Displacement assays read how much labelled ligand stays bound in the presence of the test substance.

In the next data set the test system is rabbit aortic rings. In words: Assay B: In Vitro Vascular Smooth Muscle Response for AII. Type of data set: cell-based. Conditions: antagonist at 10^-5 M, two values per cell = aorta rings from two rabbits; for Kb: Oryctolagus cuniculus, read-out: Assay B pA2 (converted). How it is done: Assay B: In Vitro Vascular Smooth Muscle-Response for ATT
Compounds of Formula I were tested for antagonist activity in rabbit aortic rings. Male New Zealand white rabbits (2–2.5 kg) were sacrificed using an overdose of pentobarbital and exsanguinated via the carotid arteries. The thoracic aorta was removed, cleaned of adherent fat and connective tissue and then cut into 3-mm ring segments. The endothelium was removed from the rings by gently sliding a rolled-up piece of filter paper into the vessel lumen. The rings were then mounted in a water-jacketed tissue bath, maintained at 37° C., between moveable and fixed ends of a stainless steel wire with the moveable end attached to an FT03 Grass transducer coupled to a Model 7D Grass Polygraph for recording isometric force responses. The bath was filled with 20 ml of oxygenated (95% oxygen/5% carbon dioxide) Krebs solution of the following composition […]: 130 NaCl, 15 NaHCO3, 15 KCl, 1.2 NaH2PO4, 1.2 MgSO4, 2.5 CaCl2, and 11.4 glucose. The preparations were equilibrated for one hour before approximately one gram of passive tension was placed on the rings. Angiotensin II concentration-response curves were then recorded (3×10^−10 to 1×10–5 M). Each concentration of AII was allowed to elicit its maximal contraction, and then AII was washed out repeatedly for 30 minutes before rechallenging with a higher concentration of AII. Aorta rings were exposed to the test antagonist at 10^−5 M for 5 minutes before challenging with AII. Adjacent segments of the same aorta ring were used for all concentration-response curves in the presence or absence of the test antagonist. The effectiveness of the test compound was expressed in terms of pA2 values and were calculated according to H. O. Schild [Br. J. Pharmacol. Chemother., 2, 189–206 (1947)]. […] Each test antagonist was evaluated in aorta rings from two rabbits.

In a further data set the test system is AII pressor response. In words: Assay C: In Vivo Intraduodenal Pressor Assay Response for AII Antagonists. On the set-up: species or system Sprague-Dawley rats. How it is done: Assay C: In Vivo Intraduodenal Pressor Assay Response for AII Antagonists
Male Sprague-Dawley rats weighing 225–300-grams were anesthetized with Inactin (100 mg/kg, i.p.) and catheters were implanted into the trachea, femoral artery, femoral vein and duodenum. Arterial pressure was recorded from the femoral artery catheter on a Gould chart recorder (Gould, Cleveland, Ohio). The femoral vein catheter was used for injections of angiotensin II, mecamylamine and atropine. The tracheal catheter allow for airway patency, and the duodenal catheter was used for intraduodenal (i.d.) administration of test compounds. After surgery, the rats were allowed to equilibrate for 30 minutes. Mecamylamine (3 mg/kg, 0.3 ml/kg) and atropine (400 ug/kg, 0.3 ml/kg) were then given i.v. to produce ganglion blockade. These compounds were administered every 90 minutes throughout the test procedure. Angiotensin II was given in bolus does i.v. (30 ng/kg in saline with 0.5% bovine serum albumin, 0.1 ml/kg) every 10 minutes three times or until the increase in arterial pressure produced was within 3 mmHg for two consecutive AII injections. The last two AII injections were averaged and were taken as the control AII pressor response. […] Angiotensin II injections were then given 5, 10, 20, 30, 45, 60, 75, 90, and 120 minutes after administration of the test compound and response of arterial pressure was monitored. The response to AII was calculated as percent of the control response and then the percent inhibition is calculated as 100 minus the percent control response. Duration of action of a test compound was defined as the time from peak percent inhibition to 50% of peak. One compound at one dose was tested in each rat. Each test compound was tested in two rats and the values for the two rats were averaged.

[2] abbreviates: Rattus norvegicus, intraduodenal, 30 mg/kg intraduodenally.
Setting [3] is: Rattus norvegicus, intraduodenal, 100 mg/kg intraduodenally.

Experimental findings from US7132437B2, “Renal-selective biphenylalkyl 1H-substituted-1,2,4-triazole angiotensin II antagonists for treatment of hypertension” (G.D. Searle, priority 1990, dated 2006) are described below.

The term melting point denotes the temperature of the solid-liquid transition. `CCCCc1nc(C(=O)CCC)nn1Cc1ccc(-c2ccccc2-c2nnn[nH]2)cc1` [Example 30] had a melting point of 150.5 to 152.5 °C.
A word on the IC50: it is the concentration at which inhibition is half-maximal. Take `CCCCc1nc(C(OC)OC)n(Cc2ccc(-c3ccccc3-c3nnn[nH]3)cc2)n1` (single isomer, unassigned) [Example 23, 5-[4′-[[3-butyl-5-(dimethoxymethyl)-1H-1,2,4-triazol-1-yl]methyl][1,1′-biphenyl]-2-yl]-1H-tetrazole]: the melting point lay in the range of 152.5 to 153.5 °C. The concentration for half-maximal inhibition (IC50) in data set [1] amounted to 430 nM.
As a reminder, the inhibition is the percentage by which the read-out fell short of the control. A lower inhibition goes with little suppression. `CCCCc1nc(CC(=O)O)nn1Cc1ccc(-c2ccccc2-c2nnn[nH]2)cc1` [Example 7, 5-[4′-[(5-butyl-3-carboxymethyl-1H-1,2,4-triazol-1-yl)methyl][1,1′-biphenyl]-2-yl]-1H-tetrazole] gave a half-inhibitory concentration (IC50) in data set [1] of 84 nM. In the data set on rabbit aortic rings, the Kb is 9.77 nM. The “Assay C Duration” value in the data set on AII pressor response (30 mg/kg intraduodenally) came to 130 min. In the data set on AII pressor response (setting [2]), this molecule yielded an inhibition at 30 mg/kg of 90%.
For the molecule `CCCCc1nc(Cl)nn1Cc1ccc(-c2ccccc2C(=O)O)cc1` (single isomer, unassigned) [Example 6, 4′-[(5-butyl-3-chloro-1H-1,2,4-triazol-1-yl)methyl][1,1′-biphenyl]-2-carboxylic acid], in the data set on rabbit aortic rings, the “Assay B pA2” value was 6.82. The “Assay C Duration” value in the data set on AII pressor response (100 mg/kg intraduodenally) turned out to be 120 min.
Turning to `CCCCCCCCc1nc(CCCC)nn1Cc1ccc(-c2ccccc2-c2nnn[nH]2)cc1` (single isomer, unassigned) [Example 28, 5-[4′-[(3-butyl-5-octyl-1H-1,2,4-triazol-1-yl)methyl][1,1′-biphenyl]-2-yl]-1H-tetrazole], the melting point lay within 136.5 to 138 °C. The molecule further registered an IC50 in data set [1] of 570 nM.
Turning to `CCCCc1nc(CCc2ccccc2)nn1Cc1ccc(-c2ccccc2-c2nnn[nH]2)cc1` (single isomer, unassigned) [Example 26], the melting point was 156 to 157.2 °C. Further, the half-inhibitory concentration (IC50) in data set [1] was 3.2 nM. The “Assay B pA2” value in the data set with rabbit aortic rings was 9.66.
`CCCCc1nc(CCC(=O)O)nn1Cc1ccc(-c2ccccc2-c2nnn[nH]2)cc1` [Example 9, 5-[4′-[[5-butyl-3-(2-carboxyethyl)-1H-1,2,4-triazol-1-yl]methyl][1,1′-biphenyl]-2-yl]-1H-tetrazole] displayed a half-maximal inhibitory concentration (IC50) in data set [1] of 700 nM. Moreover, the “Assay C Duration” value with AII pressor response (30 mg/kg intraduodenally) was 75 min; in the data set on AII pressor response (100 mg/kg intraduodenally), 130 min. Further, in the data set with AII pressor response (setting [2]), the inhibition at 30 mg/kg was found to be 80%. Besides, in the data set on AII pressor response (setting [3]), the inhibition at 100 mg/kg was 100%.
Take `CCCCc1nc(C2CCCCC2)n(Cc2ccc(-c3ccccc3-c3nnn[nH]3)cc2)n1` [Example 65, 5-[4′-[(3-butyl-5-cyclohexyl-1H-1,2,4-triazol-1-yl)methyl][1,1′-biphenyl]-2-yl]-1H-tetrazole]: the melting point lay within 157.5 to 159.5 °C.
The same measure, in the same setting: for `CCCCc1nc(C2CCCCC2)nn1Cc1ccc(-c2ccccc2-c2nnn[nH]2)cc1` [Example 66, 5-[4′-[(5-butyl-3-cyclohexyl-1H-1,2,4-triazol-1-yl)methyl][1,1′-biphenyl]-2-yl]-1H-tetrazole] the value was 125 to 127 °C.
Turning to `O=C(O)c1ccccc1-c1ccc(Cn2nc(C(F)(F)C(F)(F)C(F)(F)F)nc2C(F)(F)C(F)(F)C(F)(F)F)cc1` [Example 20, 4′-[(3,5-di-perfluoropropyl-1H-1,2,4-triazol-1-yl)methyl][1,1′-biphenyl]-2-carboxylic acid], the Kb in the data set with rabbit aortic rings is 1290 nM. Also, in the data set with AII pressor response (100 mg/kg intraduodenally), the “Assay C Duration” value worked out at 45 min. Besides, the inhibition at 100 mg/kg with AII pressor response (setting [3]) was 10%.
As to `CCCCc1nc(-c2ccccc2)nn1Cc1ccc(-c2ccccc2-c2nnn[nH]2)cc1` (single isomer, unassigned) [Example 21, 5-[4′-[(3-phenyl-5-butyl-1H-1,2,4-triazol-1-yl)methyl](1,1′-biphenyl)-2-yl]-1H-tetrazole], the melting point was 113 °C (dec.). Also, the IC50 in data set [1] is 87 nM.
Turning to `CCCCc1nc(C(F)(F)CCC)nn1Cc1ccc(-c2ccccc2C(=O)O)cc1` [Example 10], the “Assay C Duration” value with AII pressor response (3 mg/kg intraduodenally, time from peak percent inhibition to 50% of peak) is 100 min; in the data set on AII pressor response (30 mg/kg intraduodenally) it was 240 min. Also, in the data set on AII pressor response (Rattus norvegicus, intraduodenal), the inhibition at 3 mg/kg is 86%. In addition, the inhibition at 30 mg/kg with AII pressor response (setting [2]) amounted to 100%.
As to `CCCCc1nc(CCC(C)C)nn1Cc1ccc(-c2ccccc2C(=O)O)cc1` [Example 17, 4′-[(5-butyl-3-isopentyl-1H-1,2,4-triazol-1-yl]methyl)-[1,1′-biphenyl]-2-carboxylic acid], in data set [1], the concentration for half-maximal inhibition (IC50) came out at 4 nM. For the same molecule, the Kb in the data set with rabbit aortic rings was 2.29 nM.
Consider `CCCCc1nc(CN)nn1Cc1ccc(-c2ccccc2-c2nnn[nH]2)cc1` [Example 3, 5-[4′-[(3-aminomethyl-5-butyl-1H-1,2,4-triazol-1-yl)methyl][1,1′-biphenyl]-2-yl]-1H-tetrazole], for which, in data set [1], the IC50 was 5.4 nM. The Kb in the data set with rabbit aortic rings was 2 nM. The “Assay C Duration” value in the data set on AII pressor response (10 mg/kg intragastrically) was more than 180 min; in the data set on AII pressor response (30 mg/kg intragastrically) it was 200^+ min. Also, in the data set on AII pressor response (Rattus norvegicus, po, 10 mg/kg intragastrically), testing at 10 mg/kg gave an inhibition of 50%. In the data set with AII pressor response (Rattus norvegicus, po, 30 mg/kg intragastrically), this molecule showed an inhibition at 30 mg/kg of 100%.
`CCCCc1nc(C(OC)OC)nn1Cc1ccc(-c2ccccc2-c2nnn[nH]2)cc1` (single isomer, unassigned) [Example 24] registered a half-maximal inhibitory concentration (IC50) in data set [1] of 10 nM. Besides, the “Assay B pA2” value with rabbit aortic rings turned out to be 7.73.
Take `CCCCc1nc(CCCN)nn1Cc1ccc(-c2ccccc2-c2nnn[nH]2)cc1` [Example 5, 5-[4′-[[3-(3-aminopropyl)-5-butyl-1H-1,2,4-triazol-1-yl]methyl][1,1′-biphenyl]-2-yl]-1H-tetrazole]: the 50% inhibitory concentration (IC50) in data set [1] was 200 nM. In addition, the “Assay C Duration” value with AII pressor response (30 mg/kg intraduodenally) lay within 20 to 30 min. In the data set on AII pressor response (setting [2]), this molecule had an inhibition at 30 mg/kg of 38%.
In turn, `CCCCc1nc(C)nn1Cc1ccc(-c2ccccc2-c2nnn[nH]2)cc1` (single isomer, unassigned) [Example 32, 5-[4′-[(5-butyl-3-methyl-1H-1,2,4-triazol-1-yl)methyl][1,1′-biphenyl]-2-yl]-1H-tetrazole] gave a melting point of 170 to 170.5 °C. The molecule also returned a concentration for half-maximal inhibition (IC50) in data set [1] of 16 nM.
For `CCCCc1nc(-c2ccccc2)n(Cc2ccc(-c3ccccc3-c3nnn[nH]3)cc2)n1` (single isomer, unassigned) [Example 22, 5-[4′-[(3-butyl-5-phenyl-1H-1,2,4-triazol-1-yl)methyl](1,1′-biphenyl)-2-yl]-1H-tetrazole], the melting point is 205 °C (dec.). For the same molecule, in data set [1], the IC50 was determined as 460 nM. In addition, in the data set with rabbit aortic rings, the “Assay B pA2” value worked out at 6.46.
